# According to US20160194299A1 (priority 2013, published 2016):
# Key:
# [1] = test system: Vero cells
# [2] = test system: Mtb; test: microbe, parasite or virus in culture; type: cell-based, Mycobacterium tuberculosis; conditions: Mycobacterium tuberculosis, read-out: MIC (II)
# [3] = in vitro; conditions: human
# [4] = test system: Mtb; test: microbe, parasite or virus in culture; type: cell-based, Mycobacterium tuberculosis
# [5] = test system: Mtb; test: microbe, parasite or virus in culture; type: cell-based, Mycobacterium tuberculosis; remark: listed apart in the source
SMILES,LC50 (IV) [1],MIC [2] [µg/mL],CC50 [3] [µg/mL],MIC (I) [4],MIC (III) [5]
N#Cc1ccccc1NC(=O)c1nc2ccccc2s1 [Compound 215],A (key: A: >50 μg/mL; B: 50-25 μg/mL; C: <25 μg/mL),,,,
CCOC(=O)NC(=O)c1ccsc1NC(=O)c1ccnc(NC(=O)OC(C)C)c1 [Compound 4],,1 to 3,> 50,,
O=C(Nc1sccc1C(=O)N1CCN(C2CC2)CC1)c1nc2ccccc2s1 [Compound 256],C (key: A: >50 μg/mL; B: 50-25 μg/mL; C: <25 μg/mL),,,C (key: A: <1 μg/mL; B: 1-3 μg/mL; C: >3 μg/mL),B (key: A: <5 μg/mL; B: 5-25 μg/mL; C: >25 μg/mL)
O=C(Nc1sccc1C(=O)NC(=O)N1CCOCC1)c1nc2ccccc2s1 [Compound 385],C (key: A: >50 μg/mL; B: 50-25 μg/mL; C: <25 μg/mL),,,C (key: A: <1 μg/mL; B: 1-3 μg/mL; C: >3 μg/mL),C (key: A: <5 μg/mL; B: 5-25 μg/mL; C: >25 μg/mL)
CC(C)OC(=O)NC(=O)c1ccsc1NC(=O)c1n[nH]c2ncccc12 [Compound 359],B (key: A: >50 μg/mL; B: 50-25 μg/mL; C: <25 μg/mL),,,C (key: A: <1 μg/mL; B: 1-3 μg/mL; C: >3 μg/mL),C (key: A: <5 μg/mL; B: 5-25 μg/mL; C: >25 μg/mL)
O=C(NC(=O)c1ccsc1NC(=O)c1nc2cnccc2s1)OC(c1ccccc1)C(F)(F)F (centres unmarked) [Compound 304],B (key: A: >50 μg/mL; B: 50-25 μg/mL; C: <25 μg/mL),,,B (key: A: <1 μg/mL; B: 1-3 μg/mL; C: >3 μg/mL),C (key: A: <5 μg/mL; B: 5-25 μg/mL; C: >25 μg/mL)
CC(C)OC(=O)NC(=O)c1ccsc1NC(=O)c1ccc2[nH]nnc2c1 [Compound 364],B (key: A: >50 μg/mL; B: 50-25 μg/mL; C: <25 μg/mL),,,B (key: A: <1 μg/mL; B: 1-3 μg/mL; C: >3 μg/mL),C (key: A: <5 μg/mL; B: 5-25 μg/mL; C: >25 μg/mL)
COC(=O)CCCNC(=O)c1ccsc1NC(=O)c1nc2ccccc2s1 [Compound 237],B (key: A: >50 μg/mL; B: 50-25 μg/mL; C: <25 μg/mL),,,,
CCOC(=O)NC(=O)c1ccsc1NC(=O)c1nc2ccc(NC(=O)CNC(=O)OC(C)(C)C)cc2s1 [Compound 392],B (key: A: >50 μg/mL; B: 50-25 μg/mL; C: <25 μg/mL),,,B (key: A: <1 μg/mL; B: 1-3 μg/mL; C: >3 μg/mL),C (key: A: <5 μg/mL; B: 5-25 μg/mL; C: >25 μg/mL)
CCOC(=O)NC(=O)c1ccsc1NC(=O)c1cccc(NC(C)=O)c1 [Compound 3],,1 to 3,> 50,,
CCOc1n[nH]c(-c2ccsc2NC(=O)c2nc3ccccc3s2)n1 [Compound 211],A (key: A: >50 μg/mL; B: 50-25 μg/mL; C: <25 μg/mL),,,,
CCOC(=O)NC(=O)c1ccsc1NC(=O)c1n[nH]c2cc(C)ccc12 [Compound 120],A (key: A: >50 μg/mL; B: 50-25 μg/mL; C: <25 μg/mL),,,C (key: A: <1 μg/mL; B: 1-3 μg/mL; C: >3 μg/mL),C (key: A: <5 μg/mL; B: 5-25 μg/mL; C: >25 μg/mL)
CCOC(=O)NC(=O)c1ccsc1NC(=O)c1ccnc(NC(C)=O)c1 [Compound 13],,< 1,> 50,,
CC(C)OC(=O)NC(=O)c1ccsc1NC(=O)c1ccc2[nH]ncc2c1 [Compound 351],B (key: A: >50 μg/mL; B: 50-25 μg/mL; C: <25 μg/mL),,,C (key: A: <1 μg/mL; B: 1-3 μg/mL; C: >3 μg/mL),C (key: A: <5 μg/mL; B: 5-25 μg/mL; C: >25 μg/mL)
CCOC(=O)NC(=O)c1ccsc1NC(=O)c1n[nH]c2ncccc12 [Compound 358],B (key: A: >50 μg/mL; B: 50-25 μg/mL; C: <25 μg/mL),,,C (key: A: <1 μg/mL; B: 1-3 μg/mL; C: >3 μg/mL),C (key: A: <5 μg/mL; B: 5-25 μg/mL; C: >25 μg/mL)
O=C(Nc1sccc1C(=O)NCc1ccccc1)c1nc2ccccc2s1 [Compound 191],,> 3,,,
CCOC(=O)NC(=O)c1ccsc1NC(=O)c1ccnc(NS(=O)(=O)c2ccc(C)cc2)c1 [Compound 153],,> 3,,,
CCOC(=O)NC(=O)c1ccsc1NC(=O)Cc1ccccc1 [Compound 171],,> 3,,,
CCOC(=O)NC(=O)c1ccsc1NC(=O)c1n[nH]c2cc(Cl)ccc12 [Compound 134],A (key: A: >50 μg/mL; B: 50-25 μg/mL; C: <25 μg/mL),,,C (key: A: <1 μg/mL; B: 1-3 μg/mL; C: >3 μg/mL),C (key: A: <5 μg/mL; B: 5-25 μg/mL; C: >25 μg/mL)
CCOC(=O)NC(=O)c1ccsc1NC(=O)c1ccnc(-n2cnnn2)c1 [Compound 12],,1 to 3,> 50,,
O=C(Nc1sccc1C(=O)N1CCSCC1)c1nc2ccccc2s1 [Compound 261],A (key: A: >50 μg/mL; B: 50-25 μg/mL; C: <25 μg/mL),,,C (key: A: <1 μg/mL; B: 1-3 μg/mL; C: >3 μg/mL),C (key: A: <5 μg/mL; B: 5-25 μg/mL; C: >25 μg/mL)
CCOC(=O)NC(=O)c1ccsc1NC(=O)c1cnc2cc[nH]c2c1 [Compound 355],B (key: A: >50 μg/mL; B: 50-25 μg/mL; C: <25 μg/mL),,,C (key: A: <1 μg/mL; B: 1-3 μg/mL; C: >3 μg/mL),C (key: A: <5 μg/mL; B: 5-25 μg/mL; C: >25 μg/mL)
CCOC(=O)NC(=O)c1ccsc1NC(=O)c1ccc2c(c1)nc(C(F)(F)F)n2C(C)C [Compound 204],,> 3,,,
CS(=O)(=O)N1CCN(C(=O)c2ccsc2NC(=O)c2nc3ccccc3s2)CC1 [Compound 229],A (key: A: >50 μg/mL; B: 50-25 μg/mL; C: <25 μg/mL),,,,
CCOC(=O)NC(=O)c1ccsc1NC(=O)c1cc2ccccn2n1 [Compound 11],,1 to 3,> 50,,
CCOC(=O)NC(=O)c1ccsc1NC(=O)c1ccncn1 [Compound 165],,> 3,,,
CCOC(=O)NC(=O)c1ccsc1NC(=O)c1c(F)ccc(OC)c1F [Compound 173],,> 3,,,
